Legend:
NK cells = assay: CD107a release of NK cells activated by K562; assay type: cell-based, human
Procedure: The inventor used Miltenyi human NK sorting magnetic beads to separate NK cells from human peripheral blood, and used DAKEWE NK medium to culture and expand them in vitro. On Day 8, a population of NK cells with more than 95% having positive CD56 expression could be obtained. These NK cells were taken out and treated with 0 nM, 100 nM and 200 nM dasatinib respectively for 24 hr, and then divided into two groups, one of which was not activated, and the other group was stimulated with MHC-class I molecule-deficient K562 cells for 5 hr. Then, the CD107a release of NK cells were detected in both of them.
The inventors isolated NK cells from human PBMCs, and then cultured and differentiated them in NK medium to obtain CD56-positive NK cells with a purity higher than 95%. The exploration of the threshold of NK activation with dasatinib was carried out with seven concentrations in the range of 0-50 nM, namely 0, 10, 20, 25, 30, 40 and 50 nM, and the treatment was carried out overnight. The next day, the cells were resuspended with NK medium and activated with K562. Lymphocyte activator was used as a positive control for activation, and a part of NK cells that were not activated by K562 were also kept. Two replicates were set for each group. anti-CD107a antibody and monensin were added while carrying out activation, and after co-incubation for 6 hr, the CD107a release of CD56-positive NK cells was detected by flow cytometry.
The inventors isolated NK cells from human PBMCs, and then cultured and differentiated them in NK medium to obtain CD56-positive NK cells with a purity higher than 95%. Three pretreatments were done respectively (1) absence of dasatinib pretreatment; (2) pretreatment with […] pretreatment with 50 nM dasatinib, and the cells were cultured overnight. The next day, the concentration of dasatinib was reduced, and the concentration was adjusted to 0, 7.5, 12.5, 17.5 and 25 nM respectively. […] Two replicates were set for each group.
In order to repeatedly verify that the inhibition of NK cell activation function by dasatinib has an extended effect, the inventors repeated the above experiment. […] After 4 hr of co-incubation, CD107a release from CD56 positive NK cells was detected.
The inventors used CD3-negative cells in human PBMCs, which contained more than 5% of CD56-positive NK cells. […] The next day, the cells were resuspended with NK medium and activated with K562. Lymphocyte activator was used as a positive control for activation, and a part of NK cells that were not activated by K562 were also kept. Two replicates were set for each group. anti-CD107a antibody and monensin were added while carrying out activation, and after co-incubation for 6 hr, the CD107a release of CD56-positive NK cells was detected by flow cytometry.
The inventors isolated NK cells from human PBMCs, and then cultured and differentiated them in NK medium to obtain CD56-positive NK cells with a purity higher than 95%. […] Two replicates were set for each group.

T cells = assay: UCAR-T preparation process with dasatinib added after editing; assay type: cell-based, human; conditions: experimental group, 100 nM DS added after editing
Procedure: The inventors isolated CD3-positive T cells from PBMCs from three different donors using PanT kits, knocked out the B2M and TRAC genes, and performed LCK-T316I editing on the cells. Then the cells were divided into two portions, to one portion, 100 nM DS was added (experimental group), and to the other portion, a corresponding amount of DMSO was added as a control (control group). After 2 hr, to the experimental group and the control group, T cell activators (CD2/CD3/CD28, 25 ul/1M/mL) were added. After 48 hr of activation, the cells were infected with the anti-CD19 CAR molecule through lentivirus infection, and the medium was replaced 24 hr after the virus infection, and DS or DMSO was removed at the same time.

`Cc1nc(Nc2ncc(C(=O)Nc3c(C)cccc3Cl)s2)cc(N2CCN(CCO)CC2)n1` [dasatinib] was tested, and the “concentration that effectively inhibits NK cell activation in vitro (minimum)” value (NK cells; 0-50 nM overnight, K562 6 hr) was 30 nM, the “concentration enough to inhibit CD107a translocation and activation of NK cells” value (NK cells; 24 hr treatment, K562 5 hr) was 100 nM and the cells still activated (NK cells; NK cells without pretreatment, 7.5 nM dasatinib 4 hr, K562) was “about 4.4%”. For the same compound, the “release of CD107a” value (NK cells; NK cells, 25 nM and 50 nM pretreatment, changed to 12.5, 17.5 and 25 nM, K562) was “lower than 1%”, the “release of CD107a” value (NK cells; NK cells, 25 nM and 50 nM pretreatment, reduced to 7.5 nM, K562) was “lower than 1%” and the CD107a translocation (NK cells; NK cells, 100 nM and 200 nM dasatinib 24 hr, K562 5 hr) was 2%. The “release of CD107a” value (NK cells; NK cells, pretreatment with three dasatinib concentrations (0, 25, 50 nM), reduced to 0 nM, K562) was “above 58%”, the “positive CD107a release” value (NK cells; NK cells, repeat, 50 nM pretreatment, reduced to 0 nM, K562 4 hr) was 39.7% and the “basal CD107a translocation” value (NK cells; non-activated NK cells, 100 nM and 200 nM dasatinib 24 hr) was 2%. For the same compound, the “percentage of B2M and TRAC double knockout” value (T cells) was “more than 50%”.
